In patent US8999970B2, “Administration of an anti-obesity compound to individuals with renal impairment” (Arena Pharmaceuticals, Inc., priority 2010, dated 2015):

Legend:
[1] = Modeled steady state exposures following lorcaserin 10 mg BID (simulations and noncompartmental analysis from QD data); settings: 10 mg BID Simulation, Steady State
Method: To better assess the potential implications of M1 and M5 levels in patients, steady state exposures (i.e. the state of equilibrium obtained at the end of a certain number of dosings) following lorcaserin 10 mg twice daily (BID) dosing were modeled using simulations and noncompartmental analysis based on data from pharmacokinetic studies with once daily (QD) dosing.
To better assess the potential implications of M1 levels in subjects with renal impairment, steady state M1 exposure following lorcaserin 10 mg BID administration was modeled using simulations and noncompartmental analysis based upon data from pharmacokinetic studies with once daily (QD) dosing. This modeling is discussed below in Example 5.
To better assess the potential implications of M1 and M5 levels, steady state exposures following lorcaserin 10 mg BID dosing were modeled using simulations and noncompartmental analysis based upon data from pharmacokinetic studies with once daily (QD) dosing.

[2] = Preclinical toxicology: lorcaserin, M1 and M5 pharmacokinetics after oral administration of lorcaserin, 52 wk, monkeys; settings: for AUC0-inf / AUClast / Cmax / tmax: Monkeys, 52 wk; for Dose proportionality of plasma exposure: Day 1, 2 to 125 mg/kg, both sexes
Method: Lorcaserin doses of 0, 2, 10, 50, and 125 mg/kg in a 5 mL/kg dose volume were administered by nasogastric intubation once daily for 12 months to cynomolgus monkeys (4 to 6/sex/group). Two animals/sex from the control, 50 and 125 mg/kg groups were continued on study without further dosing for an additional 4 weeks prior to termination. For the first 91 days of the study, dose solutions were prepared using anhydrous lorcaserin. Starting on Day 92 and continuing for the remainder of the study, dose solutions were prepared using lorcaserin hemihydrate to match the intended commercial form. […] Evaluations included clinical signs, food consumption, BW, electrocardiograms, ophthalmic exams, and clinical pathology indices. Blood samples were collected for TK analysis on Day 1, Week 4, Day 91, Day 92, and Week 52. A full necropsy was conducted on all animals, and tissues were collected, preserved, processed, and examined microscopically. Additional sections of heart were collected to allow comprehensive evaluation of all heart valves. Heart histopathologic evaluation included atria, ventricles, interventricular septum, both AV valves (mitral and tricuspid), and the aortic and pulmonic valves.

[3] = lorcaserin 10 mg/kg/day oral, F
[4] = lorcaserin 10 mg/kg/day oral, M
[5] = lorcaserin 50 mg/kg/day oral, F
[6] = lorcaserin 50 mg/kg/day oral, M
[7] = lorcaserin 125 mg/kg/day oral, F
[8] = lorcaserin 125 mg/kg/day oral, M

SMILES: C[C@H]1CN(C(=O)O[C@@H]2O[C@H](C(=O)O)[C@@H](O)[C@H](O)[C@H]2O)CCc2ccc(Cl)cc21 [Compound M5, N-carbamoyl glucuronide of lorcaserin]
- AUC24 hr ([1]; ESRD): 20100 ng·h/mL
- Cmax ([1]; ESRD): 936 ng/mL
- t1/2 ([1]; ESRD): 22.9 h
- AUC24 hr ([1]; Mild): 1090 ng·h/mL
- Cmax ([1]; Mild): 78.1 ng/mL
- t1/2 ([1]; Mild): 5.41 h
- AUC24 hr ([1]; Moderate): 2150 ng·h/mL
- Cmax ([1]; Moderate): 141 ng/mL
- t1/2 ([1]; Moderate): 9.83 h
- AUC24 hr ([1]; Normal): 765 ng·h/mL
- Cmax ([1]; Normal): 77.3 ng/mL
- t1/2 ([1]; Normal): 6.11 h
- AUC24 hr ([1]; Severe): 4260 ng·h/mL
- Cmax ([1]; Severe): 223 ng/mL
- t1/2 ([1]; Severe): 11.0 h
- AUC0-inf ([2]; lorcaserin 2 mg/kg/day oral, F): 2130 ± 820 ng·h/mL
- AUClast ([2]; lorcaserin 2 mg/kg/day oral, F): 1760 ± 830 ng·h/mL
- Cmax ([2]; lorcaserin 2 mg/kg/day oral, F): 771 ± 104 ng/mL
- tmax ([2]; lorcaserin 2 mg/kg/day oral, F): 0.5 ± 0.0 h
- AUC0-inf ([2]; lorcaserin 2 mg/kg/day oral, M): 2380 ± 290 ng·h/mL
- AUClast ([2]; lorcaserin 2 mg/kg/day oral, M): 1820 ± 570 ng·h/mL
- Cmax ([2]; lorcaserin 2 mg/kg/day oral, M): 635 ± 310 ng/mL
- tmax ([2]; lorcaserin 2 mg/kg/day oral, M): 0.8 ± 0.3 h
- AUC0-inf [2, 3]: 6520 ± 1520 ng·h/mL
- AUClast [2, 3]: 6140 ± 1710 ng·h/mL
- tmax [2, 3]: 1.0 ± 0.7 h
- AUC0-inf [2, 4]: 13600 ± 5000 ng·h/mL
- AUClast [2, 4]: 12500 ± 6100 ng·h/mL
- Cmax [2, 4]: 2480 ± 1140 ng/mL
- tmax [2, 4]: 1.8 ± 0.5 h
- AUC0-inf [2, 5]: 40400 ± 13400 ng·h/mL
- AUClast [2, 5]: 38700 ± 12700 ng·h/mL
- Cmax [2, 5]: 3600 ± 620 ng/mL
- tmax [2, 5]: 3.2 ± 1.8 h
- AUC0-inf [2, 6]: 71400 ± 26600 ng·h/mL
- AUClast [2, 6]: 69000 ± 25800 ng·h/mL
- Cmax [2, 6]: 7040 ± 2050 ng/mL
- tmax [2, 6]: 2.3 ± 1.9 h
- AUC0-inf [2, 7]: 140000 ± 78000 ng·h/mL
- AUClast [2, 7]: 134000 ± 78000 ng·h/mL
- Cmax [2, 7]: 19700 ± 13500 ng/mL
- tmax [2, 7]: 2.7 ± 2.0 h
- AUC0-inf [2, 8]: 182000 ± 77000 ng·h/mL
- AUClast [2, 8]: 170000 ± 64000 ng·h/mL
- Cmax [2, 8]: 15800 ± 3700 ng/mL
- tmax [2, 8]: 2.2 ± 1.9 h
- AUC0-inf in monkeys relative to predicted daily exposure in moderate renal impairment ([2]; monkeys 2 mg/kg/day): approximately equal
- AUC0-inf in monkeys relative to predicted daily exposure in severe renal impairment ([2]; monkeys 2 mg/kg/day (NOAEL), human 10 mg BID): approximately half
- Cmax in monkeys relative to predicted Cmax in severe renal impairment ([2]; monkeys 2 mg/kg/day (NOAEL), human 10 mg BID steady state): 2.8-3.5 times
- Exposure in monkeys relative to predicted daily exposure in moderate renal impairment ([2]; monkeys 10 mg/kg/day): 3.0-6.3 times
- AUC0-inf exposure margin, monkeys vs predicted daily exposure in severe renal impairment ([2]; monkeys 10 mg/kg/day, human 10 mg BID): 1.5-3.2 fold
- Dose proportionality of plasma exposure ([2]; monkeys): more than dose proportional
- Exposure relative to the concomitant lorcaserin exposure, higher ([2]; monkeys, single or multiple doses of lorcaserin): up to 3 fold

SMILES: C[C@H]1CNCCc2ccc(Cl)cc21 [Lorcaserin, (R)-8-chloro-1-methyl-2,3,4,5-tetrahydro-1H-3-benzazepine]
- AUC24 hr ([1]; ESRD): 1860 ng·h/mL
- Cmax ([1]; ESRD): 87.6 ng/mL
- t1/2 ([1]; ESRD): 24.8 h
- AUC24 hr ([1]; Mild): 1270 ng·h/mL
- Cmax ([1]; Mild): 64.1 ng/mL
- t1/2 ([1]; Mild): 12.0 h
- AUC24 hr ([1]; Moderate): 935 ng·h/mL
- Cmax ([1]; Moderate): 49.5 ng/mL
- t1/2 ([1]; Moderate): 11.5 h
- AUC24 hr ([1]; Normal): 942 ng·h/mL
- Cmax ([1]; Normal): 55.8 ng/mL
- t1/2 ([1]; Normal): 8.28 h
- AUC24 hr ([1]; Severe): 835 ng·h/mL
- Cmax ([1]; Severe): 40.9 ng/mL
- t1/2 ([1]; Severe): 12.8 h
- Dose proportionality of plasma exposure ([2]; monkeys): dose linear
